Structures can show the parent of a compound that is named as a salt.
Target: T1, recombinant human liver GK (Homo sapiens, UniProt P35557)
T1 construct: made in house; host or cells: E. coli
T1 sequence (P35557 1-466 isoform P35557-2): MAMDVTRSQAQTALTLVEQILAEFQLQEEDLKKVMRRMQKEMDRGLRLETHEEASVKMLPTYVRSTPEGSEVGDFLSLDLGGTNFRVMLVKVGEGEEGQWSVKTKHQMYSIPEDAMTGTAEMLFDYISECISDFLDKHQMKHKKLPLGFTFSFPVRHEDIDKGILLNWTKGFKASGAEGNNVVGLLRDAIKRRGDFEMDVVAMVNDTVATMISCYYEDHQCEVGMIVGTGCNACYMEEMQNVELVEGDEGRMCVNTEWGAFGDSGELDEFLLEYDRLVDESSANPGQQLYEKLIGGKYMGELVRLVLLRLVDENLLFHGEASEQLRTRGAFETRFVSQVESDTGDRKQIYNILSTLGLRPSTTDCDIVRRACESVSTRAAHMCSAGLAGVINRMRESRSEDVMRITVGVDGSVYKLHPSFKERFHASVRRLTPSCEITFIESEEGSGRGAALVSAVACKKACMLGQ
Test: Glucokinase-activating effect (Thio-NADH coupled assay with G6PDH, 2.5 mM glucose)
Format: biochemical
Conditions: final glucose concentration 2.5 mM, 30° C.; for EC50: read-out: EC50; for Emax: OD level of DMSO control set as 100%
Text: The excellent glucokinase-activating effect of the compounds of the formula (I) may be determined by a method described in literature (for example, Diabetes, Vol. 45, pp. 1671-1677, 1996), or in accordance with it.
The glucokinase activity may be determined not by directly measuring glucose-6-phosphate but by measuring the level of Thio-NADH, which is produced when a reporter enzyme, glucose-6-phosphate dehydrogenase produces phosphogluconolactone from glucose-6-phosphate, and based on the level, the degree of glucokinase activation by the compound tested may be determined
In this assay, used was a recombinant human liver GK, which was expressed by E. coli as a FLAG fusion protein therein and was purified by ANTIFLAG M2 AFFINITY GEL (Sigma).
Using a flat-bottomed 96-well plate, the assay was carried out at 30° C. 69 μl of an assay buffer (25 mM Hepes Buffer/pH=7.2, 2 mM MgCl2, 1 mM ATP, 0.5 mM TNAD, 1 mM dithiothreitol) was put into the plate, and 1 μl of a DMSO solution of the compound or DMSO alone as a control was added thereto. Next, 20 μl of an enzyme mixture (FLAG-GK, 20 U/ml G6PDH) cooled in ice was added to it, and 10 μl of a substrate, 25 mM glucose was added to it, and the reaction was initiated (final glucose concentration=2.5 mM).
After the start of the reaction, the increase in the absorbance at 405 nm was measured for 12 minutes at intervals of 30 seconds, and the increase for the first 5 minutes was used for assessing the compound tested. FLAG-GK was added so that the absorbance increase after 5 minutes in the presence of 1% DMSO could be from 0.04 to 0.06.
The OD level of the DMSO control was set as 100%; and the OD level of the test compound at different concentrations was determined. From the OD level at each concentration, Emax (%) and EC50 (μM) were computed and used as the index of the GK-activating potency of the compound.
The comparative test was conducted to compare the compound of example 18, 31 and 32 in this invention with the compound (A) in the patent document 1. The test method in vitro was similar to pharmacological experiment 1 (glucokinase-activating effect).

Compound	EC50 [nM]	Emax [%]
CN(C)CCN(C)C(=O)c1cnc(Oc2ccc3ncnc(Nc4ccn(C)n4)c3c2)c(Cl)c1 [Example 65, 5-chloro-N-[2-(dimethylamino)ethyl]-N-methyl-6-({4-[(1-methyl-1H-pyrazol-3-yl)amino]quinazolin-6-yl}oxy)nicotinamide]	410	–
CCN1CC(Oc2cnc(Oc3ccc4ncnc(Nc5ccn(C)n5)c4c3)c(F)c2)C1 [Example 25, 6-({5-[(1-ethylazetidin-3-yl)oxy]-3-fluoropyridin-2-yl}oxy)-N-(1-methyl-1H-pyrazol-3-yl)quinazoline-4-amine hydrochloride]	230	–
CN(C)CCCOc1ccc(Oc2ccc3ncnc(Nc4ccn(C)n4)c3c2)nc1 [Example 4, 6-({5-[3-(dimethylamino)propoxy]pyridin-2-yl}oxy)-N-(1-methyl-1H-pyrazol-3-yl)quinazoline-4-amine]	380	–
Cc1nsc(Nc2ncnc3ccc(Oc4ccc(OCCN(C)C)cn4)cc23)n1 [Example 47, 6-({5-[2-(dimethylamino)ethoxy]pyridin-2-yl}oxy)-N-(3-methyl-1,2,4-thiadiazol-5-yl)quinazoline-4-amine]	290	–
Cc1cnc(Nc2ncnc3ccc(Oc4ncc(OCCO)cc4Cl)cc23)cn1 [Example 58, 2-{[5-chloro-6-({4-[(5-methylpyrazin-2-yl)amino]-1quinazolin-6-yl}oxy)pyridin-3-yl]oxy}ethanol]	200	–
Cn1ccc(Nc2ncnc3ccc(Oc4ncc(OCCO)cc4F)cc23)n1 [Example 54, 2-{[5-fluoro-6-({-4-[(1-methyl-1H-pyrazol-3-yl)amino]quinazolin-6-yl}oxy)pyridin-3-yl]oxy}ethanol]	360	–
COc1ccc2nc(Nc3ncnc4ccc(Oc5ncc(OCCN(C)C)cc5Cl)cc34)sc2n1 [Example 46, 6-({3-chloro-5-[2-(dimethylamino)ethoxy]pyridin-2-yl}oxy)-N-(5-methoxy-[1,3]thiazolo[5,4-b]pyridin-2-yl)quinazoline-4-amine]	110	–
CNCCOc1cnc(Oc2ccc3ncnc(Nc4ccn(C)n4)c3c2)c(C)c1 [Example 70, N-methyl-2-{[5-methyl-6-({4-[(1-methyl-1H-pyrazol-3-yl)amino]quinazolin-6-yl}oxy)pyridin-3-yl]oxy}ethanamine hydrochloride]	26	979
CN(C)CCOc1cnc(Oc2ccc3ncnc(Nc4ccn(C)n4)c3c2)nc1 [Example 8, 6-({5-[2-(dimethylamino)ethoxy]pyrimidin-2-yl}oxy)-N-(1-methyl-1H-pyrazol-3-yl)quinazoline-4-amine]	1320	–
CN(C)CCN(C)C(=O)c1ccnc(Oc2ccc3ncnc(Nc4ccn(C)n4)c3c2)c1Cl [Example 67, 3-chloro-N-[2-(dimethylamino)ethyl]-N-methyl-2-({4-[(1-methyl-1H-pyrazol-3-yl)amino]quinazolin-6-yl}oxy)isonicotinamide]	6090	598
CN(C)CCOc1cnc(Oc2ccc3ncnc(Nc4cnccn4)c3c2)c(Cl)c1 [Example 44, 6-({3-chloro-5-[2-(dimethylamino)ethoxy]pyridin-2-yl}oxy)-N-pyrazin-2-ylquinazoline-4-amine]	260	–
Cc1cnc(Nc2ncnc3ccc(Oc4ncc(OCCCO)cc4Cl)cc23)cn1 [Example 61, 3-{[5-chloro-6-({4-[(5-methylpyrazin-2-yl)amino]quinazolin-6-yl}oxy)pyridin-3-yl]oxy}propan-1-ol]	410	888
Cc1cc(OCCO)cnc1Oc1ccc2ncnc(Nc3cnn(C)n3)c2c1 [Example 84, 2-{[5-methyl-6-({4-[(2-methyl-2H-1,2,3-triazol-4-yl)amino]quinazolin-6-yl}oxy)pyridin-3-yl]oxy}ethanol]	40	–
Cc1cc(OCCNC(C)C)cnc1Oc1ccc2ncnc(Nc3cnn(C)n3)c2c1 [Example 81, N-(2-{[5-methyl-6-({4-[(2-methyl-2H-1,2,3-triazol-4-yl)amino]quinazolin-6-yl}oxy)pyridin-3-yl]oxy}ethyl)propan-2-amine hydrochloride]	13	–
CN(C)CCCN(C)S(=O)(=O)c1cnc(Oc2ccc3ncnc(Nc4ccn(C)n4)c3c2)c(Cl)c1 [Example 64, 5-chloro-N-[3-(dimethylamino)propyl]-N-methyl-6-({4-[(1-methyl-1H-pyrazol-3-yl)amino]quinazolin-6-yl}oxy)pyridine-3-sulfonamide]	1140	–
Cn1ccc(Nc2ncnc3ccc(Oc4ncc(OC5CNC5)cc4Cl)cc23)n1 [Example 23, 6-{[5-(azetidin-3-yloxy)-3-chloropyridin-2-yl]oxy}-N-(1-methyl-1H-pyrazol-3-yl)quinazoline-4-amine hydrochloride]	50	–
CC(C)NCCOc1ccc(Oc2ccc3ncnc(Nc4cnn(C)n4)c3c2)nc1 [Example 76, N-(2-{[6-({4-[(2-methyl-2H-1,2,3-triazol-4-yl)amino]quinazolin-6-yl}oxy)pyridin-3-yl]oxy}ethyl)propan-2-amine hydrochloride]	230	–
Cc1cnc(Nc2ncnc3ccc(Oc4ccc(OCCNC(C)C)cn4)cc23)cn1 [Example 37, 6-({5-[2-(isopropylamino)ethoxy]pyridin-2-yl}oxy)-N-(5-methylpyrazin-2-yl)quinazoline-4-amine]	380	–
Cc1cnc(Nc2ncnc3ccc(Oc4ncc(OCCNC(C)C)cc4F)cc23)cn1 [Example 40, 6-({3-fluoro-5-[2-(isopropylamino)ethoxy]pyridin-2-yl}oxy)-N-(5-methylpyrazin-2-yl)quinazoline-4-amine hydrochloride]	350	–
CCNCCCOc1cnc(Oc2ccc3ncnc(Nc4ccn(C)n4)c3c2)c(Cl)c1 [Example 20, 6-({3-chloro-5-[3-(ethylamino)propoxy]pyridin-2-yl}oxy)-N-(1-methyl-1H-pyrazol-3-yl)quinazoline-4-amine hydrochloride]	40	–
CN(C)CCOc1ncc(Oc2ccc3ncnc(Nc4ccn(C)n4)c3c2)cn1 [Example 7, 6-({2-[2-(dimethylamino)ethoxy]pyrimidin-5-yl}oxy)-N-(1-methyl-1H-pyrazol-3-yl)quinazoline-4-amine]	6930	695
CC(C)NCCOc1ccc(Oc2ccc3ncnc(Nc4ccn(C)n4)c3c2)nc1 [Example 5, 6-({5-[2-(isopropylamino)ethoxy]pyridin-2-yl}oxy)-N-(1-methyl-1H-pyrazol-3-yl)quinazoline-4-amine]	260	–
CN(C)CCOc1cnc(Oc2ccc3ncnc(Nc4ccn(C)n4)c3c2)c(Cl)c1 [Example 1, 6-({3-chloro-5-[2-(dimethylamino)ethoxy]pyridin-2-yl}oxy)-N-(1-methyl-1H-pyrazol-3-yl)quinazoline-4-amine]	80	–
CN(C)CCOc1ccc(Oc2ccc3ncnc(Nc4ccn(C)n4)c3c2)cn1 [Example 3, 6-({6-[2-(dimethylamino)ethoxy]pyridin-3-yl}oxy)-N-(1-methyl-1H-pyrazol-3-yl)quinazoline-4-amine]	1740	918
Cc1cnc(Nc2ncnc3ccc(Oc4ncc(OCCN(C)C)cc4Cl)cc23)cn1 [Example 35, 6-({3-chloro-5-[2-(dimethylamino)ethoxy]pyridin-2-yl}oxy)-N-(5-methylpyrazin-2-yl)quinazoline-4-amine]	100	–
CN(C)CCOc1cnc(Cl)c(Oc2ccc3ncnc(Nc4ccn(C)n4)c3c2)c1 [Example 2, 6-({2-chloro-5-[2-(dimethylamino)ethoxy]pyridin-3-yl}oxy)-N-(1-methyl-1H-pyrazol-3-yl)quinazoline-4-amine]	420	–
Cc1cnc(Nc2ncnc3ccc(Oc4ncc(OCCN(C)C)cc4C)cc23)cn1 [Example 34, 6-({5-[2-(dimethylamino)ethoxy]-3-methylpyridin-2-yl}oxy)-N-(5-methylpyrazin-2-yl)quinazoline-4-amine hydrochloride]	70	–
